Assay results from patent US6586413B2, “Methods and compositions for reducing ischemic injury of the heart by administering adenosine receptor agonists and antagonists” (The United States of America as represented by the …, priority 1999, dated 2003).
Like-named read-outs stand apart in the source and are kept apart here.

Legend:
A1 receptor = target: T1, A1 receptor (Rattus norvegicus, UniProt P25099); conditions: Table II; cited from earlier work
T1 sequence (P25099 1-326): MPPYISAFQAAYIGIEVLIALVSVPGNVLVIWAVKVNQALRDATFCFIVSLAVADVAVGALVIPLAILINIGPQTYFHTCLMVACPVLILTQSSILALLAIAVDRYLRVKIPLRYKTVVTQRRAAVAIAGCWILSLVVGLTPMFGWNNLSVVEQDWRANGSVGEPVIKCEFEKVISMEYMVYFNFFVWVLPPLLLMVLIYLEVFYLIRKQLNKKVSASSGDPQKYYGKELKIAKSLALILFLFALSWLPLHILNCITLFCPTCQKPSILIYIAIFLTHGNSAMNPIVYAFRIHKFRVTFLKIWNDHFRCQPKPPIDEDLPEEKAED

A3 receptor = conditions: cited from earlier work
A2a receptor = A2a receptor (Rattus norvegicus, UniProt P30543); conditions: Table II; cited from earlier work
Sequence of A2a receptor (P30543 whole entry): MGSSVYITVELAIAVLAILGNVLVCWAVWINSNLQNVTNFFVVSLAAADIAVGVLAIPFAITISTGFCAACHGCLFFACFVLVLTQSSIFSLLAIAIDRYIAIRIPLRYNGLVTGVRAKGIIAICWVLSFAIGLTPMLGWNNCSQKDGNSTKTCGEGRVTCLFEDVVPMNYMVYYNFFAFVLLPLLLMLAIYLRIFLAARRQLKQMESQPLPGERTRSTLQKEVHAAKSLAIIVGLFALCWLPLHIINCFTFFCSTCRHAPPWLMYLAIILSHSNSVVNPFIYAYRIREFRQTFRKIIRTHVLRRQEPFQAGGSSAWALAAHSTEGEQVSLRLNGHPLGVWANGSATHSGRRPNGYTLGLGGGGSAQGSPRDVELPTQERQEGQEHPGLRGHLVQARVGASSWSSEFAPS

[1] = test system: ventricular myocytes cultured from chick embryos; assay: Pharmacological preconditioning: 5 min exposure to agent, then 90 min simulated ischemia; type: cell-based; conditions: for preconditioning / cardioprotective effect: agent alone, 5 min exposure before 90 min ischemia
Protocol: FIG. 14 is a graph showing that the partial A1 receptor agonist, 8-butylaminoCPA, mimics the cardioprotective effect of ischemic preconditioning. Ventricular myocytes were cultured from chick embryos 14 days in ovo. The ability of the partial A1 agonist, 8-butylaminoCPA (8-butylamino-N^6-cyclopentyladenosine), to induce preconditioning was determined. In brief, myocytes were exposed to 8-butylaminoCPA at the indicated concentrations for 5 min, incubated for 10 min with agonist-free medium, and then exposed to simulated ischemia for 90 min. The extent of myocyte injury was quantitated at the end of the 90 min period by determinating the percentage of cells killed and the amount of creatine kinase (CK) released (units per milligram of cell protein). Data are means±SE of values from five independent experiments.
(§1) Determination of myocyte injury was made at the end of the ninety-minute hypoxia, at which time myocytes were taken out of the hypoxic incubator and re-exposed to room air (normal % O2). Aliquots of the media were then obtained for creatine kinase (CK) activity measurement, which is followed by quantitation of the number of viable cells. Measurement of basal level of cell injury was made after parallel incubation of control cells under normal % O2. The extent of hypoxia-induced injury to the ventricular cell was quantitatively determined by the percentages of cells killed and by the amount of CK released into the media according to a previously described method (16, 23). […] In brief, the media were replaced with a trypsin-EDTA buffer to detach the cells, which was then followed by sedimentation of the viable myocytes. Parallel changes in % cells killed and CK released (16, 23) further validated this assay for % cells killed. The amount of CK was measured as enzyme activity (unit/mg), and increases in CK activity above the control level were determined. The percentage of cells killed was calculated as the number of cells obtained from the control group (representing cells not subjected to any hypoxia or drug treatment) minus the number of cells from the treatment group divided by number of cells in control group multiplied by 100%.
Media were then replaced with fresh media, which was then followed by exposure to 90-minute simulated ischemia and the data graphed.

[2] = test system: cardiac ventricular myocytes cultured from chick embryos; assay: Hypoxia-induced myocyte injury, agent present during prolonged (90 min) hypoxia with glucose deprivation; type: cell-based; conditions: agonist present during prolonged hypoxia/simulated ischemia
Protocol: Ventricular cells were cultured from chick embryos 14 days in ovo as previously described (16, 23). Cells were cultivated in a humidified 5% CO2-95% air mixture at 37° C. […] The medium was changed to a HEPES-buffered medium containing (mM) 139 NaCl, 4.7 KCl, 0.5 MgCl2, 0.9 CaCl2, 5 HEPES (N-2-hydroxyethylpiperazine-N′-2-ethanesulfonic acid) and 2% fetal bovine serum, pH 7.4, 37° C. before exposing the myocytes to the various conditions at 37° C. Control myocytes were maintained in the HEPES-buffered media under room air. Ninety-minute exposure of the myocytes to hypoxia with glucose deprivation was used to induce cell injury. Hypoxia was produced by placing the cells in a hypoxic incubator (NuAire) where O2 was replaced by N2 as previously described (16,23). Effects of adenosine receptor agonists and antagonists on the extent of myocyte injury were determined by exposure of the prepared cells to these agents during the prolonged hypoxia.
as §1

[3] = test system: cardiac ventricular myocytes cultured from chick embryos; assay: as above; type: cell-based; conditions: agonist added upon reoxygenation after 90 minute hypoxia, kept one additional hour; hypoxia alone 26.5±1.0
[4] = target: T2, human adenosine A3 receptor (Homo sapiens, UniProt P0DMS8); assay: Preconditioning in chick atrial myocytes transfected with the human A3 receptor; type: cell-based; conditions: hA3R-transfected vs vector-transfected atrial myocytes
T2 construct: full length cDNA encoding human adenosine A3 receptor subcloned in pcDNA3; expressed in transfected cells; host or cells: chick embryo atrial myocytes, transient calcium phosphate transfection with pcDNA3/hA3R
T2 sequence (P0DMS8 1-318): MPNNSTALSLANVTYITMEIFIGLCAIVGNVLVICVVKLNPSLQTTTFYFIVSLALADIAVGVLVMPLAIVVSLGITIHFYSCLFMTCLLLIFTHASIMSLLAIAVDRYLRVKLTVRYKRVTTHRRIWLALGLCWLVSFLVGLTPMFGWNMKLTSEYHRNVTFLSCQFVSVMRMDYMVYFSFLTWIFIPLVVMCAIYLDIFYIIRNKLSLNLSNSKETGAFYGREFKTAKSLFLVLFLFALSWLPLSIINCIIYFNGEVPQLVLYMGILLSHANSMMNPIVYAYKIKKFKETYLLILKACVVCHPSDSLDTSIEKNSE
Protocol: Transfection of chick atrial myocytes with the human A3 receptor—Atrial cells were cultured from chick embryos 14 days in ovo and transiently transfected with pcDNA3 (empty vector) or with pcDNA3/hA3R (full length cDNA encoding human adenosine A3 receptor subcloned in pcDNA3) using the calcium phosphate precipitation method. Forty-eight hours after transfection, the cells were exposed to the compounds of the invention and the percentage of myocytes killed during simulated ischemia was determined.
The transfected myocytes were then exposed to the compound for 5 minutes, which was followed by replacement with fresh media and myocytes exposed to normal conditions (non-ischemic) for 10 minutes prior to being exposed to ninety minutes of ischemia. The decrease in the number of myocytes killed in A3 receptor cDNA-transfected myocytes as compared to vector-transfected myocytes was plotted as a function of the concentration of the compound. This decrease in myocytes killed represented an index of the protection mediated via the human adenosine A3 receptor.

[5] = test system: isolated cardiac myocytes; assay: Apoptotic cell death by DNA laddering on 1.5% agarose gel; type: cell-based
Protocol: Such smearing is indicative of a culmination of the apoptotic cell death pathway. Isolated cardiac myocytes were exposed to 90-min ischemia and 30-min reoxygenation (lanes 4 and 5). […] Lanes 1 and 2 represent myocytes not exposed to ischemia or any agent. Data were representative of three experiments.
Isolated cardiac myocytes were exposed to prolonged moderate simulated ischemia (17 hours with 2-3% O2). Lane 3 represents myocytes not exposed to ischemia or any agent. Lane 5 represents myocytes exposed to 17 hours of ischemia. […] Data were representative of three experiments.
Lane 3 represents myocytes not exposed to any agent. Lane 5 represents cardiac myocytes exposed (for three hours) to an agent (a P2X receptor agonist, 2-methylthioATP) known to increase intracellular calcium concentration. Prolonged exposure to 2-methylthioATP or UTP caused increased apoptosis (Lane 7). […] Data were representative of two experiments.
The effects of agents which target the adenosine receptor on apoptosis were initially examined in isolated cardiac myocytes exposed to ischemia (for 90 minutes and 30 minutes of reoxygenation) or agents which increase intracellular calcium levels. Increasing the level of intracellular calcium concentration induces non-ischemia-related apoptosis in vitro. Apoptotic cell death of cardiac myocytes was assessed by determining the extent of smearing or “DNA laddering” on 1.5% agarose gels.

## CNC(=O)C1OC(n2cnc3c(NOc4ccccc4)ncnc32)C(O)C1O (stereo not drawn) [Compound 11, 6-(O-Phenylhydroxylamino)purine-9-beta-ribofuranoside-5′-N-methyluronamide]
A1 receptor
  Ki: 2060 nM
A3 receptor; Table II
  Ki: 1340 nM
A2a receptor
  Ki: 66300 nM

## CCNC(=O)C1OC(n2cnc3c(NC(=O)Nc4ccccc4C(F)(F)F)ncnc32)C(O)C1O (stereo not shown) [Compound 4d, N^6-((2-trifluoromethyl)carbamoyl)adenosine-5′-uronamide]
A1 receptor
  Ki: 384 nM
A3 receptor; Table II
  Ki: 54 nM
A2a receptor
  Ki: > 10000 nM

## OC[C@H]1O[C@@H](n2cnc3c(NC4CCCC4)nc(Cl)nc32)[C@H](O)[C@@H]1O [CCPA, 2-chloro-N^6-cyclopentyladenosine]
[1]
  preconditioning / cardioprotective effect: causes a pronounced cardioprotective effect in the cardiac myocyte
[2]
  cardioprotective effect when present during prolonged hypoxia (CK released, % myocytes killed): caused a dose-dependent reduction in the percentage of myocytes killed
[3]
  % myocytes killed: 22.1±1.5%

## CNC(=O)C1OC(n2cnc3c(NCc4cccc(C#CCNC(=O)CCC(=O)Nc5cccc(/C=C/c6nc7c(c(=O)n(C)c(=O)n7C)n6C)c5)c4)ncnc32)C(O)C1O (stereo not shown) [MRS 1528]
[1]; CGS21680 (0.3 μM)
  preconditioning effect in presence of A2a agonist CGS21680: protective effect of low concentrations of MRS1528 is attenuated by the A2a agonist CGS21680 whereas the protective effect of high concentrations of MRS1528 is not affected
[1]; CSC (1 μM)
  preconditioning effect in presence of A2a antagonist CSC: unaffected by the A2a receptor antagonist CSC
[1]
  preconditioning / cardioprotective effect: can activate A3 receptor to induce preconditioning and can simultaneously block the A2a receptor to enhance its preconditioning effect
[4]
  preconditioning / protection mediated via human adenosine A3 receptor: can cause preconditioning of the cardiac myocytes via human adenosine A3 receptor

## CNC(=O)[C@H]1O[C@@H](n2cnc3c(NCc4cccc(I)c4)nc(Cl)nc32)[C@H](O)[C@@H]1O [Cl-IB-MECA, 2-chloro-N^6-(3-iodobenzyl)adenosine-5′-N-methyluronamide]
[1]
  preconditioning / cardioprotective effect: caused a potent cardioprotective effect
[2]
  cardioprotective effect when present during prolonged hypoxia (CK released, % myocytes killed): capable of protecting the cardiac myocytes against hypoxia-induced injury
[5]; 90 min ischemia and 30 min reoxygenation, 10 nM Cl-IB-MECA, 1 μM MRS1191
  apoptotic cell death (DNA laddering): reduced apoptotic cell death of cardiac myocytes
[5]; co-incubation, no ischemia
  apoptotic cell death in the presence of 2-methylthioATP: resulted in a decrease in apoptotic cell death
[5]; prolonged moderate ischemia, 17 hours with 2-3% O2
  apoptosis (DNA laddering): reduced apoptosis
[3]
  % myocytes killed: 23.0±1.4%

## CCNC(=O)C1OC(n2cnc3c(NC4CCCCC4)ncnc32)C(O)C1O (stereo not shown) [N^6-cyclohexyl NECA, N6-cyclohexyl 5′-N-ethylcarboxamidoadenosine]
A3 receptor; Table II
  Ki: 16 nM

## NCCNC(=O)Cc1ccc(NC(=O)Cc2ccc(Nc3ncnc4c3ncn4[C@@H]3O[C@H](CO)[C@@H](O)[C@H]3O)cc2)cc1 [ADAC, N^6-[4-[[[4-[[[(2-aminoethyl)amino]carbonyl]methyl]anilino]carbonyl]methyl]phenyl]adenosine]
A3 receptor; Compound 8 table
  Ki: 4 nM
[2]
  cardioprotective effect when present during prolonged hypoxia (CK released, % myocytes killed): able to protect the myocytes when present during the prolonged hypoxia
